Results published in patent US10239916B2, “Controlled modulation of amino acid side chain length of peptide antigens” (Board of Regents, The University of Texas System, priority 2002, dated 2019).
Where no end group is shown, it is not given here. [ ]: non-standard residue; d: D form. Nle = CCCC[C@H](N)C(=O)O; Nva = CCC[C@H](N)C(=O)O

How the values were obtained:
[1] = system: T2 cells pulsed with E75; experiment: CTL assay: lysis of peptide-pulsed T2 cells by peptide-induced CTL; type: cell-based, human; details: for recognition of E75 by variant-induced CTL compared with E75-induced CTL: donor 1, priming; for E75-specific lytic activity of variant-induced CTL compared with E75-CTL: donor 2
[2] = system: CD8+ cells; experiment: Expansion and survival of peptide-stimulated T cells (numbers of live / CD8+ cells); type: cell-based, human; details: for number / survival of stimulated cells at restimulation compared with E75: donor 2; for percentage of live cells: donor 2, 30 days after priming, primed and restimulated
[3] = system: PBMC; experiment: IFN-γ induction in PBMC/T cells stimulated with peptide-pulsed autologous DC (ELISA); type: cell-based, human; design: IFN-γ induction at priming compared with E75: dose or concentration left out as unconfirmed; details: for IFN-γ induction at priming compared with E75: two weak E75-responder donors, […] μM on autologous DC; for IFN-γ at priming compared with E75: donor 1; for increase of IFN-γ at priming over E75: donor 2
[4] = biological target: HLA-A2 (Homo sapiens, UniProt P04439, D140Y/D185E/D98H/E176V/E277Q/G131W/G231S/I119V/I121R/I166T/I218V/N151K/N90K/P208A/P217A/Q86G/Q94H/R138H/R169H); experiment: Molecular modeling of peptide:HLA-A2 complex, accessible surface area (GETAREA 1.1)
[5] = system: Bcl-2, Bcl-xL, Bad; type: cell-based, human; details: for up-regulation of Bcl-2 and Bcl-XL: F42SK-CTL restimulated with agonists pulsed on T2
[6] = system: SKOV3.A2 cells; experiment: Cold-target inhibition of lysis of SKOV3.A2 by T2-E75; type: cell-based, human
[7] = system: PBMC; experiment: IL-2 induction in PBMC/T cells stimulated with peptide-pulsed autologous DC (ELISA); type: cell-based, human; details: Donor 3
[8] = system: CD8+ cells; experiment: Two color FACS (CD62L, CFSE) of peptide-stimulated CD8+ cells; type: cell-based, human; details: Donor 1 CD8+ cells, 20 additional days in IL-2
[9] = system: T2 cells pulsed with E75; details: cited from earlier work
[10] = system: E75+TCR cells; experiment: E75+TCR cells determined with E75 dimers (dE75), flow cytometry; type: cell-based, human
[11] = system: ovarian tumor OVA-16 (HLA-A2+, HER-2high); experiment: Cold-target inhibition of cytolysis of OVA-16 by T2-E75; type: cell-based, human; details: S5K-CTL
Text: (§1) FIGS. 11A-11C. […] FIGS. 11A and 11B, Cold target inhibition of cytolysis of OVA-16 (HLA-A2, HER-2^high). […] E:T ratio was 10:1; the ratio of cold to hot targets was 1:1. C, IFN γ induction. IL-12 was used at 3 IU (300 pg/ml); the responders to SKOV3. A2 stimulator ratio was 40:1.
(§2) Similar inhibition (38%) was observed against SKOV3.A2 in a 16-h assay. […] The levels of inhibition of lysis indicative of specific recognition were similar to those levels observed with donor 2, E75-CTL, and S5K-CTL (FIG. 8E). S5K-CTL was also tested for the ability to secrete IFN-γ at an encounter with the ovarian tumor SKOV3.A2 and its HLA-A2^− counterpart SKOV3. This was necessary because the tumor and responding lymphocytes shared HLA-A3.

[12] = system: SKOV3.A2; experiment: IFN-γ secretion of S5K-CTL at encounter with ovarian tumor SKOV3.A2; type: cell-based, human; details: SKOV3.A2 stimulator, IL-12 as costimulator
Text: as §1, §2

A7.2: E75 with Ala7 replaced by norvaline (NVal), 2 CH2 groups extending linearly from Ala7 (KIFGSL[Nva]FL)
number of E75-specific LU, schedule 2×A7.3 to 2×A7.2 relative to 4×A7.3 [1]: two times higher
increase in number of E75-lytic specific effectors, 2×A7.3 to 2×A7.2 vs 4×A7.3 ([1]; 4×2): 8 fold
E75 level recognized by induced CTL ([1]; A7.3-induced, A7.3-restimulated CTL after additional stimulation with A7.2): 50 nM
sensitivity for E75 relative to E75-induced CTL ([1]; CTL at 50 nM level): at least 100 fold
lytic activity induced in rested A7.3 CTL by restimulation ([1]; tested 30 h later, no IL-2): somewhat higher levels of lytic activity
numbers of CD8+ cells, schedule 2×A7.3 to 2×A7.2 relative to 4×A7.3 [2]: 4 times
IFN-γ induction at priming ([3]; Donor 3): stronger inducer of IFN-γ
IFN-γ response to E75 of primed T cells relative to E75-primed T cells ([3]; E75 at 2 μM, within 16 h, Donor 1): 3 fold
IFN-γ induction ([3]; cells from donors and ovarian cancer patients which did not respond to E75): higher levels of IFN-γ than A7.3 and G4.3
IFN-γ induction at priming compared with E75 [3]: higher levels of IFN-γ than E75

K1FGSL (NLeu)FL (KIFGSL[Nle]FL) [A7.3, 10]
E75 level recognized by induced CTL ([1]; A7.3-induced CTL-TIL restimulated with A7.3): 200 nM
exogenous pulsed E75 concentration recognized by induced CTL ([1]; Donor 4 (CTL-4), three stimulations): 25 nM
change in the surface between E75 and A7.3 [4]: 0.036%
up-regulation of Bcl-2 and Bcl-XL [5]: significantly stronger stimulators for up-regulation of Bcl-2 and Bcl-XL than F42
Bcl-xL to Bad ratio ([5]; S5K-CTL CD8+ cells stimulated 96 h, 25 μg/ml): even higher Bcl-xL to Bad ratios than E75
inhibition of SKOV3.A2 lysis by T2-E75 ([6]; A7.3-induced CTL-TIL, 5 h CTL assay): 60%
inhibition of lysis of SKOV3-A2 by T2-E75 ([6]; CTL-3 primed with E75 and restimulated, T2-E75 at 100 nM): 27%
IL-2 induction at priming [7]: stronger inducer of IL-2 than A7.2
IFN-γ induction at priming compared with E75 [3]: higher levels of IFN-γ than E75

KIFGALAFL [S5A]
recognition of E75 by variant-induced CTL compared with E75-induced CTL [1]: recognized E75 better than CTL induced by E75
E75-specific lytic activity of variant-induced CTL compared with E75-CTL [1]: significantly higher
number / survival of stimulated cells at restimulation compared with E75 [2]: dropped faster
percentage of live cells [2]: decrease in live cells
IFN-γ at priming compared with E75 [3]: higher levels of IFN-γ
increase of IFN-γ at priming over E75 [3]: 100%

KIFGGLAFL [S5G]
CD62L+ cells in the resulting population [8]: 4.8%
recognition of E75 by variant-induced CTL compared with E75-induced CTL [1]: recognized E75 better than CTL induced by E75
number / survival of stimulated cells at restimulation compared with E75 [2]: dropped faster
percentage of live cells [2]: decrease in live cells
IFN-γ at priming compared with E75 [3]: higher levels of IFN-γ
increase of IFN-γ at priming over E75 [3]: 64%

KIFGKLAFL [S5K]
exogenous pulsed E75 recognized by F42SK-CTL [9]: 5000 ng/mL
Bcl-2 levels in small E75+TCR lymphocytes ([10]; S5K-CTL): higher in the small lymphocytes
MCF of E75+TCR expression in small lymphocytes ([10]; S5K-CTL stimulated 1 wk): 180
lysis of T2-E75 by peptide-induced CTL ([1]; E75 10 μg/ml, E:T ratio 40:1): 25.4 % lysis
recognition of E75 by variant-induced CTL compared with E75-induced CTL [1]: CTL induced by priming with E75 recognized E75 better
E75-specific lytic activity of variant-induced CTL compared with E75-CTL [1]: lower than the recognition by E75-CTL
recognition (lysis) of peptide-pulsed T2 by E75-CTL ([1]; donor 3 E75-CTL, peptide 50 μg/ml): 32%
increase in number of CD8+ cells of S5K-CTL ([2]; 50 μg/ml peptide + anti-Fas, 4 days): 27%
numbers of live cells recovered after stimulation and expansion in IL-2 ([2]; S5K-CTL stimulated with peptide-pulsed T2): 2.9 ×10^6 cells
increase in number of CD8+ cells of S5K-CTL ([2]; […] μg/ml peptide + anti-Fas, 4 days): 0.93%
number / survival of stimulated cells at restimulation compared with E75 [2]: survived longer than E75-stimulated cells
survival of responders ([2]; donor 3, after third stimulation): better survival in responders than E75
increase in number of CD8+ cells of S5K-CTL ([2]; in the absence of CH11): no increase in cell number
up-regulation of Bcl-2 and Bcl-XL [5]: slightly stronger up-regulator of Bcl-2 than E75
up-regulation of Bcl-2 ([5]; S5K-CTL): slightly stronger up-regulator of Bcl-2 than E75
inhibition of lysis of OVA-16 by T2-E75 ([11]; 8-h CTL assay): 21%
inhibition of lysis of OVA-16 by T2-E75 ([11]; 16-h assay): 45%
inhibition of lysis of SKOV3.A2 by T2-E75 ([6]; S5K-CTL, 16-h assay): 38%
inhibition of tumor lysis by T2-E75 compared with E75-CTL ([6]; donor 2, E:T 30:1, cold:hot 10:1): inhibited less by T2-E75 than lysis by E75-CTL
IFN-γ secretion by peptide-induced CTL [12]: high levels of IFN-γ within 20 h
IFN-γ and IL-2 response of S5K-CTL compared with E75 [3]: higher levels of IFN-γ, but lower levels of IL-2
IFN-γ at priming compared with E75 [3]: higher levels of IFN-γ
increase of IFN-γ at priming over E75 [3]: 36%
IFN-γ induction compared with E75 ([3]; healthy donor responding weakly to E75): higher IFN-γ induction

KIFGSLAYL [F8Y]
recognition of E75 by variant-induced CTL compared with E75-induced CTL [1]: CTL induced by priming with E75 recognized E75 better
IFN-γ at priming compared with E75 [3]: lower levels of IFN-γ

KIFSGSLAKL [F8K]
recognition of E75 by variant-induced CTL compared with E75-induced CTL [1]: CTL induced by priming with E75 recognized E75 better
IFN-γ at priming compared with E75 [3]: lower levels of IFN-γ
